Results as given in patent publication US20260176253A1 (priority 2021, published 2026).

How the values were obtained:
5HT2A sensor [1] = format: cell-based
mice = test: Head-twitch response (HTR) in mice; format: in vivo
Description: Head twitch response (HTR) experiments. C57BL/6J Mice (9-10 weeks old) are housed following an IACUC approved protocol. The mice are habituated in the test cage for at least 30 min, injected intraperitoneally with compound (injection volume 5 ml/kg), returned to the empty test cage, and filmed for 20 minutes. Each video is scored for the number of head-twitches by a trained observer blinded to treatment condition.

5HT2A sensor [2] = format: cell-based; remark: listed apart in the source

COc1ccc2[nH]cc(CCN(C)C)c2c1 [Compound 5-MeO-DMT]
activation of the 5HT2A sensor assay in agonist mode (5HT2A sensor [1]): activate the 5HT2A sensor assay in agonist mode | head-twitch response (HTR) (mice): robust, dose-dependent head-twitch response

COc1ccc2c(CCN(C)C)c[nH]c2c1 [Compound 6-MeO-DMT]
activation of the 5HT2A sensor assay in agonist mode (5HT2A sensor [1]): do not activate the 5HT2A sensor assay in agonist mode | competition with 5-HT in the 5HT2A sensor assay in antagonist mode (5HT2A sensor [2]): compete off 5-HT | head-twitch response (HTR) (mice): does not produce a HTR

O=C(c1ccc(F)cc1)C1CCN(CCn2c(=O)[nH]c3ccccc3c2=O)CC1 [Ketanserin]
activation of the 5HT2A sensor assay in agonist mode (5HT2A sensor [1]): do not activate the 5HT2A sensor assay in agonist mode | competition with 5-HT in the 5HT2A sensor assay in antagonist mode (5HT2A sensor [2]): can compete with 5HT binding to 5HT2A
